Patent US11986466B2, “Methods of treating solid tumors with CCR2 antagonists” (CHEMOCENTRYX, INC., priority 2018, dated 2024)
Entries after “also recorded” stand apart in the source; their conditions may differ.

Key:
[1] = tested on: pancreatic ductal adenocarcinoma (PDAC); settings: orally dosed, phase 1b study; cited from earlier work
[2] = Body weight and tolerability after daily oral dosing; type: in vivo, mice; settings: 20 or 60 mg/kg daily oral
Protocol: (§1) (A) Mice were orally dosed for Compound 1 daily at a lower concentration (20 mg/kg per day) or a higher concentration (60 mg/kg per day) for consecutive ten days. Plasma concentration of Compound 1 was detected by chemistry analyst 24 hours after the last dosing. (B) The same groups of mice in panel (A) were recorded for body weight before the first and after the last oral administration (n=4 per group). Statistical analysis is performed by two-way ANOVA in GraphPad PRISM (GraphPad Software, San Diego, CA).
(§2) Compound 1 is an orally-bioavailable CCR2 antagonist. […] For the experimental treatment regimen, we administered Compound 1 daily via oral gavage, starting on the same day of tumor implantation (FIG. 1a). […] Thus, Compound 1 blocked tumor growth in an inflammation and macrophages dependent model of T cell lymphoma.

CD8+ T cells = assay: IHC staining of tumor tissue with CD8a antibody; type: in vivo, C57BL/6 mice; settings: two weeks of treatment, dose-dependent, vs untreated and vehicle
Protocol: (§3) FIG. 7A-E. CD8 T cells are compulsory in CCR2 antagonist-mediated anti-tumor immunity. (A) Tumor tissues were collected from mice euthanized after two weeks of treatment. Groups are as indicated in the graph. IHC staining with CD8a antibody was performed. The numbers of CD8 positive T cells were counted by taking three random images of HPF (high power field) in each section from all four mice per group. (B) Scheme for neutralizing CD8 T cells along with Compound 1 treatment. Neutralizing anti-CD8 or rat-IgG2a was administrated via intraperitoneal injection one day before MBL2 tumor inoculation followed by a second dose after 7 days. Tumor formation was examined in two weeks after the treatment with Compound 1 or vehicle. (C) Mice treated in experiment (B) were euthanized on day 3 for flow analysis of the cervical draining lymph nodes in order to determine the effect of CD8 depletion (three mice per group). (D) Mice were euthanized on day 15 after the two weeks of Compound 1/vehicle treatment with or without CD8 T cell neutralization. Ear thickness is measured for presenting tumor size. (E) Draining lymph nodes are also measured for the lymph node metastasis (n=4).
H&E and Histoimmunochemistry. […]

[3] = tested on: CD11b+/F4/80+ macrophages; assay: Flow cytometry of macrophages in ear tumor microenvironment; type: in vivo, C57BL/6 mice
Source text: (§4) FIG. 3A-D. Compound 1 specifically targets macrophages, but not neutrophils. (A, B) Macrophages, defined by the CD11b+/F4/80+ cell populations in flow analysis, were presented in either percentage or absolute numbers in ear TME after only two daily doses of Compound 1 (dosages are indicated in the figure, * p<05, ** p<01 vs vehicle control). (C, D) Single cell suspension from the same tissues as in (A) were stained with antibodies for CD11b, F4/80, CCR2, Ly6G, and Ly6C. Cells gated on CD11b were further analyzed to differentiate the subpopulations. Solid circles indicate the cells which are targeted by Compound 1. Dotted circles circles indicate the cells which are not blocked by Compound 1.
(§5) Flow cytometry for mouse ear tissues, lymph nodes, and spleens. Anti-mouse CD45 (clone 30-F11), CD11b (M1/70), F4/80 (BM8), Ly6G (1A8), Ly6C (HK1.4), IFN-γ (XMG1.2) and CD8 (5H10-1) Abs were purchased from BioLegend (San Diego, CA). Ears or tumor tissues were digested to obtain skin cell suspensions as described, Lymph nodes or spleens were directly minced and filtered through cell strainers with 100 μm micron pores (Thermo Fisher Scientific, Waltham, MA). Red blood cells in the spleen samples were removed by RBC lysis buffer (BioLegend). Intracellular staining was done after incubating cells for 4 h with brefeldin A and PMA/ionomycin as described. Flow cytometry was performed using an Acuri C6 or LSR II (BD Biosciences, San Jose, CA) in conjunction with FlowJo analysis software (Tree Star, San Carlos, CA).

[4] = Plasma concentration of Compound 1 after daily oral dosing; type: in vivo, mice
Protocol: as §1, §2

[5] = tested on: neutrophil-like cells (CD11b- and Ly6G-positive cells); assay: Flow cytometry of neutrophils / neutrophil-like cells in ear tumor microenvironment; type: in vivo, C57BL/6 mice
Source text: as §4
(§6) FIG. 4A-D. Enhanced inflammation is associated with CCR2 antagonism by Compound 1 in the tumor microenvironment. (A, B) Ear tissues were collected from mice treated by Compound 1 (60 mg/kg) or vehicle on day 7. Representative images for HE sections and IHC staining with anti-F4/80 were shown for the ear tissues from Compound 1 and vehicle treated group. (C, D) Ears from day 7 were also analyzed by flow cytometry to quantify the numbers of the two major myeloid subpopulations in TME with antibodies for CD11b, F4/80 and Ly6G.
as §5

MBL2 tumors [6] = assay: Cervical draining lymph node size (lymph node metastasis) in DNFB-MBL2 model; type: in vivo, C57BL/6 mice; settings: day 15, Compound 1 alone
Protocol: as §3
Next, we administrated neutralizing CD8 antibodies by IP injection concurrently with the Compound 1 treatment (FIG. 7B). […]

MBL2 tumors [7] = assay: MBL2/DNFB mouse ear skin T cell lymphoma model: tumor growth (ear thickness, ear weight); type: in vivo, C57BL/6 mice
Protocol: Animals and cell lines. Female C57BL/6 mice (6-8 weeks old) were purchased from Charles River (Hollister, CA) and housed in animal facilities at University of California Davis (UCDAVIS), Sacramento, CA All animal experiments were conducted in accordance with the guidelines and approval of the Institutional Animal Care and Usage Committee at UCDAVIS. The MBL2 cell line is an established cell line derived from Moloney MuLV-induced T-cell lymphoma in C57BL/6 mice, in which the gag gene was deleted from the genome in order to lower virus-dependent immunogenicity. MBL2 cells were cultured in DMEM (Invitrogen, Carlsbad, CA) with 10% heat-inactivated FBS.
Establishment of MBL2 tumors in mice. The method of establishing mouse ear skin tumors was previously described, Briefly, PBS-washed MBL2 cells (4×10^5 in 20 μl PBS) were injected into the dermal space under the central dorsal surface of the ears and above the cartilage plane using a 28 g needle. Mice were then topically treated one time with DNFB (1-Fluoro-2, 4-dinitrobenzene, 0.5% in a vehicle consisting of 4:1 (v/v) acetone and olive oil, 10 μl/ear) (Sigma, St. Louis, CA) on dorsal ear skins. Tumor growth was assessed for maximum ear thickness using a digital caliper, or by weight for the whole tumor-bearing ears removed from ear baseline. The endpoint determination is based on the allowed maximal ear tumor size, or local erosion and bleeding, which usually occurred within two weeks after implantation.
Tumor treatment by CCR2 antagonist and/or anti-PD1. Small molecule compounds, Compound 1, either in a high concentration (6 mg/ml) or a low concentration (2 mg/ml), as well as vehicle control were all provided by ChemoCentryx (Mountain View, CA) in a lab-ready formulation. In therapeutic application, oral administration through gavage of Compound 1 or vehicle started on the same day of MBL2 cell inoculation, usually two hours apart. Compound 1 was administrated once a day (60 mg/kg for high dose or 20 mg/kg for low dose) for up to two weeks following tumor implantation. […]

F4/80+ macrophages = assay: IHC staining of ear tissue with anti-F4/80; type: in vivo, C57BL/6 mice; settings: day 7, 60 mg/kg oral daily
Protocol: as §6
(§7) H&E and Histoimmunochemistry. After mouse ear tumors were surgically removed at the ear base, the ear sample was cut into two parts along the long axis and placed in RNA later for RNA extraction or into 10% formalin for hematoxylin and eosin (H&E) staining or immunohistochemical staining with purified mouse antibodies (anti-CD8 and anti-F4/80 from Biolegend, San Diego, CA).

[8] = H&E histology and appearance of tumor-bearing ears; type: in vivo, C57BL/6 mice; settings: day 7, 60 mg/kg
Protocol: as §6, §7

[9] = tested on: cytokines and biomarkers produced from the TME; assay: Quantitative RT-PCR of cytokines and biomarkers in ear tissues; type: in vivo, C57BL/6 mice
Protocol: FIG. 5A-C. Compound 1 treatment altered the expression of cytokines and biomarkers produced from the TME. Quantitative RT-PCR was performed for the ear tissues collected on day 7. Genes that are involved in cancer inflammation and immunity crosstalk are selectively detected. Comparative expression is performed between the Compound 1 and vehicle treated groups. […] Gene expression values are normalized to endogenous expression of GAPDH (* p<05, ** p<0.01; n=3 mice per group).
FIG. 6. Compound 1 treatment altered the expression of cytokines and biomarkers produced from the TME. Quantitative RT-PCR was performed for the ear tissues collected on day 7. Genes that are involved in immune suppression and anti-inflammation are selectively detected. Comparative expression is performed between the Compound 1 and vehicle treated groups. Gene expression values are normalized to endogenous expression of GAPDH (n=3 mice per group).
Quantitative real-time PCR. RNA (<2 μg per sample) was converted into cDNA with the high-capacity first-strand cDNA Kit (Qiagen). Real-time PCR was performed on a StepOne Plus Real-time PCR system (Applied Biosystem, Carlsbad, CA). QPCR primer pairs were purchased from Integrated DNA technologies (Coralville, Iowa).

[10] = ear tumors, treated two days after tumor implantation, 20 or 60 mg/kg oral
[11] = day 15, 20 or 60 mg/kg oral daily, vs untreated or vehicle
[12] = day 7, vs vehicle, normalized to GAPDH

## O=C(NCC(=O)N1CC[C@H](N[C@H]2CC[C@@](O)(c3ccc(-c4ncccn4)cn3)CC2)C1)c1cccc(C(F)(F)F)c1 [PF-04136309]
[1]
  TAM infiltration: reduction in TAM infiltration
  anti-tumor immune response: endogenous anti-tumor immune response

## C[C@H]1CN([C@@H]2CC[C@@](C(=O)N3COc4c(cc(C(F)(F)F)cc4C(F)(F)F)C3)(C3CC3)OC2)CC[C@@H]1c1cccc(C(=O)O)c1 [Compound 1]
[2]
  tolerability / side effects: well tolerated; also recorded: without side effects
[2]; ten days
  weight changes: ≤ 20%
CD8+ T cells
  numbers of CD8+ T cells in the tumor/TME (IHC): significantly larger numbers of CD8+ T cells; also recorded: markedly increased
[3]; [10]
  CD11b+/F4/80+ macrophages, absolute numbers in whole ears: significantly decreased
  CD11b+/F4/80+ macrophages, percentage values of live cells: significantly decreased
[3]; oral administration for two days after tumor initiation, vehicle 17.7%
  macrophages in the skin (flow cytometry): 2.78 % of total leukocytes
[4]; 20 or 60 mg/kg daily oral gavage for ten days, 24 hours after last dosing
  plasma concentration: correlated well to the feeding doses; also recorded: dose-dependently absorptive
[4]; oral
  oral bioavailability: orally-bioavailable
[5]; after two daily doses
  accumulation of neutrophils in the TME: not blocked
  relative abundance of neutrophils in the TME: increased
[5]; one week (day 7) of treatment, 60 mg/kg oral daily, vs vehicle, 60 mg/kg
  numbers of neutrophils / neutrophil-like cells in the TME: significantly larger numbers of neutrophils; also recorded: significant increase
MBL2 tumors [6]
  cervical draining lymph node size: reduction of cervical LN size
MBL2 tumors [7]; [11]
  ear thickness: significantly reduced
  ear weight: significantly reduced
MBL2 tumors [7]; single agent, two weeks of treatment, vs vehicle/control
  tumor growth / tumor size: smaller and sometimes nearly eradicated; also recorded: visible reduction in tumor growth; also recorded: inhibits tumor growth; also recorded: effectively delay the tumor growth, but was unable to eliminate the tumors
F4/80+ macrophages
  macrophages in the TME by IHC anti-F4/80: largely absent
[8]
  tumor cell necrosis: results in tumor cell necrosis
[9]; day 7, vs controls
  IL-10 expression in ears: similarly expressed
  TGF-beta expression in ears: similarly expressed
[9]; day 7, vs vehicle
  CCL2 expression in the TME: Upregulation
  CCL7 expression in the TME: Upregulation
  CXCL1/2 expression in the TME: noticeably increased
  IL-1beta expression in ears: upregulated to variable extents
  IL-6 expression in ears: upregulated to variable extents
  IL-12 expression in ears: found to increase
  IL-17a expression in ears: upregulated to variable extents
  S100A8/9 expression in the TME: noticeably increased
  granzyme B expression in ears: consistent upregulation
[9]; [12]
  CXCL10 mRNA level in ears: significantly increased
  CXCL11 mRNA level in ears: significantly increased
  IFN-γ mRNA level in ears: significantly increased
